Measured values as given in ChEMBL document CHEMBL2331144, “Synthesis and anticancer activity of analogues of phenstatin, with a phenothiazine A-ring, as a new class of microtubule-targeting agents” (Bioorg Med Chem Lett, 2013).

Assays:
COLO 205 = experiment: Growth inhibition of human COLO205 cells at 10 uM after 48 hrs by sulforhodamine B assay; format: functional; conditions: COLO 205, 48 h, read-out: GI
T47D = experiment: Growth inhibition of human T47D cells at 10 uM after 48 hrs by sulforhodamine B assay; format: functional; conditions: read-out: GI
MOLT-4 = experiment: Growth inhibition of human MOLT4 cells at 10 uM after 48 hrs by sulforhodamine B assay; format: functional; conditions: MOLT-4, 48 h, read-out: GI
UO-31 = experiment: Growth inhibition of human UO31 cells at 10 uM after 48 hrs by sulforhodamine B assay; format: functional; conditions: UO-31, 48 h, read-out: GI
CCRF-CEM = experiment: Growth inhibition of human CCRF-CEM cells at 10 uM after 48 hrs by sulforhodamine B assay; format: functional; conditions: read-out: GI
LOX IMVI = experiment: Growth inhibition of human LOXIMVI cells at 10 uM after 48 hrs by sulforhodamine B assay; format: functional; conditions: read-out: GI
MDA-MB-468 = experiment: Growth inhibition of human MDA-MB-468 cells at 10 uM after 48 hrs by sulforhodamine B assay; format: functional; conditions: MDA-MB-468, 48 h, read-out: GI
[1] = Growth inhibition of human NCI-ADR-RES cells at 10 uM after 48 hrs by sulforhodamine B assay; format: functional; conditions: read-out: GI
MDA-MB-435 = experiment: Growth inhibition of human MDA-MB-435 cells at 10 uM after 48 hrs by sulforhodamine B assay; format: functional; conditions: MDA-MB-435, 48 h, read-out: GI
NCI-H522 = experiment: Growth inhibition of human NCI-H522 cells at 10 uM after 48 hrs by sulforhodamine B assay; format: functional; conditions: NCI-H522, 48 h, read-out: GI
SR = experiment: Growth inhibition of human SR cells at 10 uM after 48 hrs by sulforhodamine B assay; format: functional; conditions: read-out: GI
RPMI-8226 = experiment: Growth inhibition of human RPMI8226 cells at 10 uM after 48 hrs by sulforhodamine B assay; format: functional; conditions: RPMI-8226, 48 h, read-out: GI
K562 = experiment: Growth inhibition of human K562 cells at 10 uM after 48 hrs by sulforhodamine B assay; format: functional; conditions: K562, 48 h, read-out: GI
MCF7 = experiment: Growth inhibition of human MCF7 cells at 10 uM after 48 hrs by sulforhodamine B assay; format: functional; conditions: MCF7, 48 h, read-out: GI
HOP-92 = experiment: Growth inhibition of human HOP92 cells at 10 uM after 48 hrs by sulforhodamine B assay; format: functional; conditions: HOP-92, 48 h, read-out: GI
A498 = experiment: Growth inhibition of human A498 cells at 10 uM after 48 hrs by sulforhodamine B assay; format: functional; conditions: A498, 48 h, read-out: GI
CAKI-1 = experiment: Growth inhibition of human CAKI-1 cells at 10 uM after 48 hrs by sulforhodamine B assay; format: functional; conditions: CAKI-1, 48 h, read-out: GI
HCT-116 = experiment: Growth inhibition of human HCT116 cells at 10 uM after 48 hrs by sulforhodamine B assay; format: functional; conditions: HCT-116, 48 h, read-out: GI
SNB-75 = experiment: Growth inhibition of human SNB75 cells at 10 uM after 48 hrs by sulforhodamine B assay; format: functional; conditions: SNB-75, 48 h, read-out: GI
HCT-15 = experiment: Growth inhibition of human HCT15 cells at 10 uM after 48 hrs by sulforhodamine B assay; format: functional; conditions: HCT-15, 48 h, read-out: GI
MDA-MB-231 = experiment: Growth inhibition of human MDA-MB-231 cells at 10 uM after 48 hrs by sulforhodamine B assay; format: functional; conditions: MDA-MB-231, 48 h, read-out: GI
SK-MEL-5 = experiment: Growth inhibition of human SK-MEL-5 cells at 10 uM after 48 hrs by sulforhodamine B assay; format: functional; conditions: SK-MEL-5, 48 h, read-out: GI
HOP-62 = experiment: Growth inhibition of human HOP62 cells at 10 uM after 48 hrs by sulforhodamine B assay; format: functional; conditions: HOP-62, 48 h, read-out: GI
Malme-3M = experiment: Growth inhibition of human MALME-3M cells at 10 uM after 48 hrs by sulforhodamine B assay; format: functional; conditions: read-out: GI
RXF 393 = experiment: Growth inhibition of human RXF393 cells at 10 uM after 48 hrs by sulforhodamine B assay; format: functional; conditions: RXF 393, 48 h, read-out: GI
786-0 = experiment: Growth inhibition of human 786-0 cells at 10 uM after 48 hrs by sulforhodamine B assay; format: functional; conditions: 786-0, 48 h, read-out: GI
SF-295 = experiment: Growth inhibition of human SF295 cells at 10 uM after 48 hrs by sulforhodamine B assay; format: functional; conditions: SF-295, 48 h, read-out: GI
KM12 = experiment: Growth inhibition of human KM12 cells at 10 uM after 48 hrs by sulforhodamine B assay; format: functional; conditions: KM12, 48 h, read-out: GI
OVCAR-4 = experiment: Growth inhibition of human OVCAR4 cells at 10 uM after 48 hrs by sulforhodamine B assay; format: functional; conditions: OVCAR-4, 48 h, read-out: GI
PC-3 = experiment: Growth inhibition of human PC3 cells at 10 uM after 48 hrs by sulforhodamine B assay; format: functional; conditions: PC-3, 48 h, read-out: GI
HL-60(TB) = experiment: Growth inhibition of human HL-60(TB) cells at 10 uM after 48 hrs by sulforhodamine B assay; format: functional; conditions: HL-60, 48 h, read-out: GI
UACC-62 = experiment: Growth inhibition of human UACC62 cells at 10 uM after 48 hrs by sulforhodamine B assay; format: functional; conditions: UACC-62, 48 h, read-out: GI
Ovis aries = organism: Ovis aries; experiment: Inhibition of sheep brain tubulin polymerization at 100 uM using DAPI by fluorimetry

| Structure (SMILES) | inhibition of growth at 10 µM (COLO 205) | inhibition of growth at 10 µM (T47D) | inhibition of growth at 10 µM (MOLT-4) | inhibition of growth at 10 µM (UO-31) | inhibition of growth at 10 µM (CCRF-CEM) | inhibition of growth at 10 µM (LOX IMVI) | inhibition of growth at 10 µM (MDA-MB-468) | inhibition of growth at 10 µM [1] | inhibition of growth at 10 µM (MDA-MB-435) | inhibition of growth at 10 µM (NCI-H522) | inhibition of growth at 10 µM (SR) | inhibition of growth at 10 µM (RPMI-8226) | inhibition of growth at 10 µM (K562) | inhibition of growth at 10 µM (MCF7) | inhibition of growth at 10 µM (HOP-92) | inhibition of growth at 10 µM (A498) | inhibition of growth at 10 µM (CAKI-1) | inhibition of growth at 10 µM (HCT-116) | inhibition of growth at 10 µM (SNB-75) | inhibition of growth at 10 µM (HCT-15) | further results |
| --- | --- | --- | --- | --- | --- | --- | --- | --- | --- | --- | --- | --- | --- | --- | --- | --- | --- | --- | --- | --- | --- |
| CC(=O)c1cn(C(=O)N2c3ccccc3Sc3ccccc32)c2ccccc12 | 1.6% | 25.1% | 16.9% | 24.2% | 7.2% | 9% | 14% | 4.9% | 3% | 17% | 31.4% | 35.5% | 26.2% | 0% | 24.9% | 1.3% | 14% | 6.8% | 6% | 8.4% | inhibition of growth at 10 µM (MDA-MB-231): 0%; inhibition of growth at 10 µM (SK-MEL-5): 8.5%; inhibition of growth at 10 µM (HOP-62): 13.3%; inhibition of growth at 10 µM (Malme-3M): 7.6%; inhibition of growth at 10 µM (RXF 393): 7%; inhibition of growth at 10 µM (786-0): 6.7%; inhibition of growth at 10 µM (SF-295): 0.9%; inhibition of growth at 10 µM (KM12): 6.6%; inhibition of growth at 10 µM (OVCAR-4): 0%; inhibition of growth at 10 µM (PC-3): 18.3%; inhibition of growth at 10 µM (HL-60(TB)): 16.5%; inhibition of growth at 10 µM (UACC-62): 16% |
| O=C(c1cc2cc(F)ccc2[nH]1)N1c2ccccc2Sc2ccccc21 | 0% | 10.1% | 31.8% | 21.6% | 10.1% | 33.6% | 11.6% | 15.6% | 3.2% | 0% | 56.9% | 5.8% | 34.6% | 3.4% | 4.2% | 19.1% | 17.3% | 46.1% | 20.6% | 45.8% | inhibition (Ovis aries): 32%; inhibition of growth at 10 µM (MDA-MB-231): 23.8%; inhibition of growth at 10 µM (SK-MEL-5): 24.5%; inhibition of growth at 10 µM (HOP-62): 20.6%; inhibition of growth at 10 µM (Malme-3M): 3.9%; inhibition of growth at 10 µM (RXF 393): 7.7%; inhibition of growth at 10 µM (786-0): 11.2%; inhibition of growth at 10 µM (SF-295): 5.7%; inhibition of growth at 10 µM (KM12): 1.7%; inhibition of growth at 10 µM (OVCAR-4): 14.8%; inhibition of growth at 10 µM (PC-3): 44.7%; inhibition of growth at 10 µM (HL-60(TB)): 1.3%; inhibition of growth at 10 µM (UACC-62): 25.6% |
